Experimental data: publication PMC6277767, “Broad and Region-Specific Impacts of the Synthetic Cannabinoid CP 55,940 in Adolescent and Adult Female Mouse Brains” (Frontiers in Molecular Neuroscience, 2018)

System: CD1 female mouse brain lipidome
Test: Brain-region lipid levels (HPLC/MS/MS lipidomics) 2 h after single i.p. 3 mg/kg CP 55,940 vs vehicle
Assay type: in vivo
Description: The Bloomington Institutional Animal Care and Use Committee of Indiana University reviewed and approved the animal procedures. Female mice from the CD1 strain were utilized to match our study examining THC’s effects on the brain lipidome ([Leishman et al., 2018]). Mice were given a single i.p. injection of either 3 mg/kg CP or 1:1:18 cremophor:ethanol:saline vehicle (please refer to the section “3 mg/kg CP Is Relevant for Synthetic Cannabinoid Abuse and Has Stronger Effects on the Female Mouse Brain Lipidome During Adolescence” for a justification of dose and use of female mice). Three different age groups were given injections: PND 35 and PND 50 adolescents, and adult mice (PND 113). At least eight mice in each age group received CP and at least eight received vehicle. Matching the THC study time course ([Leishman et al., 2018]), mice were sacrificed via rapid decapitation 2 h after injection. Brains were immediately removed and flash-frozen in liquid nitrogen, and then stored at -80°C until dissections were performed. Brains were dissected on an ice-cold dissection plate into the following regions: STR, HIPP, CER, THAL, CTX, HYP, MID, and STEM. These abbreviations for these brain areas will be used exclusively when discussing the results generated by these specific dissections. Each dissected area was immediately placed in liquid nitrogen and then stored at -80°C until used for lipid extraction.
Tissue extracts were performed as previously described ([Bradshaw et al., 2006]; [Stuart et al., 2013]; [Raboune et al., 2014]; [Leishman et al., 2016a],[b], [2017], [2018]). First, samples were shock frozen in liquid nitrogen, weighed, and transferred to a centrifuge tube. The mass of the largest sample was multiplied by 50 to determine how many milliliters of HPLC-grade methanol (Fisher, Fair Lawn, NJ, United States) to add. Then, samples were spiked with 500 pmol deuterium-labeled NAGly (d8NAGly; Cayman Chemical, Ann Arbor, MI, United States). Samples were placed on ice in darkness for 2 h then individually homogenized and centrifuged at 19,000 × g for 20 min at 20°C. Supernatants were diluted with HPLC water (purified in house) to make a solution of 75% water, 25% supernatant. Lipids were partially purified on C18 solid phase extraction columns (Agilent, Palo Alto, CA, United States). A series of four elutions with 1.5 mL of 60%, 75%, 85%, and 100% methanol were collected ([Stuart et al., 2013]; [Leishman et al., 2016a],[b], [2018]).
As previously described ([Bradshaw et al., 2006]; [Tan et al., 2006]; [Smoum et al., 2010]; [Stuart et al., 2013]; [Tortoriello et al., 2013]; [Raboune et al., 2014]; [Leishman et al., 2016a],[b], [2017], [2018]), samples were analyzed using an Applied Biosystems API 3000 triple quadrupole mass spectrometer with electrospray ionization (Foster City, CA, United States). Using an Agilent XDB-C18 reversed phase analytical column and optimized mobile phase gradients, 20 μL from each elution were chromatographed. Two Shimadzu 10ADvp pumps (Columbia, MD, United States) provided the pressure for gradient elution. Mobile phase A: 20% methanol, 80% water (v/v) and 1 mM ammonium acetate (Sigma, St. Louis, MO, United States). Mobile phase B: 100% methanol, 1 mM ammonium acetate. Every method run began with 0% mobile phase B, reached 100% mobile phase B flowing at 0.2 mL/min, and gradually returned to 0% mobile phase B.
This screening library will be referred to as the lipidome when discussing data from this study. HPLC/MS/MS data were analyzed using Analyst software (Applied Biosystems) ([Bradshaw et al., 2006]; [Tan et al., 2006]; [Stuart et al., 2013]; [Tortoriello et al., 2013]; [Raboune et al., 2014]; [Leishman et al., 2016a],[b], [2017], [2018]). Chromatograms (Supplementary Figure 3) were generated by determining the retention time of analytes from the analytical column with a [M-1] or [M+1] parent peak and a fragmentation peak corresponding to the programmed values. […]

CCCCCCC(C)(C)c1ccc([C@@H]2C[C@H](O)CC[C@H]2CCCO)c(O)c1 [CP 55,940]
total changes in lipid levels across the eight regions (PND 35): 231
changes in lipid levels that were decreases (PND 35, eight regions): 152
2-arachidonoyl glycerol level vs vehicle (PND 35 CER): ↓ (1-1.49 times lower than vehicle)
2-linoleoyl glycerol level vs vehicle (PND 35 CER): ↓ (1-1.49 times lower than vehicle)
6-ketoPGF1α level vs vehicle (PND 35 CER): ↓↓ (1.50-1.99 times lower than vehicle)
Arachidonic acid level vs vehicle (PND 35 CER): ↓ (1-1.49 times lower than vehicle)
N-arachidonoyl GABA level vs vehicle (PND 35 CER): ↓ (1-1.49 times lower than vehicle)
N-arachidonoyl alanine level vs vehicle (PND 35 CER): ↓ (1-1.49 times lower than vehicle)
N-arachidonoyl glycine level vs vehicle (PND 35 CER): ↓ (1-1.49 times lower than vehicle)
N-arachidonoyl methionine level vs vehicle (PND 35 CER): ↓↓ (1.50-1.99 times lower than vehicle)
N-arachidonoyl serine level vs vehicle (PND 35 CER): ↓ (1-1.49 times lower than vehicle)
N-arachidonoyl taurine level vs vehicle (PND 35 CER): ↓ (1-1.49 times lower than vehicle)
N-arachidonoyl tyrosine level vs vehicle (PND 35 CER): ↓ (1-1.49 times lower than vehicle)
N-docosahexaenoyl GABA level vs vehicle (PND 35 CER): ↓ (1-1.49 times lower than vehicle)
N-docosahexaenoyl alanine level vs vehicle (PND 35 CER): ↓ (1-1.49 times lower than vehicle)
N-docosahexaenoyl glycine level vs vehicle (PND 35 CER): ↓ (1-1.49 times lower than vehicle)
N-docosahexaenoyl leucine level vs vehicle (PND 35 CER): ↑ (1-1.49 times higher than vehicle)
N-docosahexaenoyl serine level vs vehicle (PND 35 CER): ↓ (1-1.49 times lower than vehicle)
N-docosahexaenoyl tyrosine level vs vehicle (PND 35 CER): ↓ (1-1.49 times lower than vehicle)
N-linoleoyl glycine level vs vehicle (PND 35 CER): ↓ (1-1.49 times lower than vehicle)
N-linoleoyl leucine level vs vehicle (PND 35 CER): ↑ (1-1.49 times higher than vehicle)
N-linoleoyl phenylalanine level vs vehicle (PND 35 CER): ↑ (1-1.49 times higher than vehicle)
N-oleoyl GABA level vs vehicle (PND 35 CER): ↓ (1-1.49 times lower than vehicle)
N-oleoyl ethanolamine level vs vehicle (PND 35 CER): ↓ (1-1.49 times lower than vehicle)
N-oleoyl leucine level vs vehicle (PND 35 CER): ↑ (1-1.49 times higher than vehicle)
N-oleoyl phenylalanine level vs vehicle (PND 35 CER): ↑ (1-1.49 times higher than vehicle)
N-palmitoyl leucine level vs vehicle (PND 35 CER): ↑↑ (1.50-1.99 times higher than vehicle)
N-palmitoyl phenylalanine level vs vehicle (PND 35 CER): ↑ (1-1.49 times higher than vehicle)
N-palmitoyl proline level vs vehicle (PND 35 CER): ↓ (1-1.49 times lower than vehicle)
N-palmitoyl serine level vs vehicle (PND 35 CER): ↓ (1-1.49 times lower than vehicle)
N-palmitoyl tyrosine level vs vehicle (PND 35 CER): ↑ (1-1.49 times higher than vehicle)
N-palmitoyl valine level vs vehicle (PND 35 CER): ↑↑ (1.50-1.99 times higher than vehicle)
2-palmitoyl glycerol level vs vehicle (PND 35 CTX): ↑↑ (1.50-1.99 times higher than vehicle)
6-ketoPGF1α level vs vehicle (PND 35 CTX): ↓ (1-1.49 times lower than vehicle)
N- stearoyl valine level vs vehicle (PND 35 CTX): ↑ (1-1.49 times higher than vehicle)
N-arachidonoyl GABA level vs vehicle (PND 35 CTX): ↓ (1-1.49 times lower than vehicle)
N-arachidonoyl alanine level vs vehicle (PND 35 CTX): ↓ (1-1.49 times lower than vehicle)
N-arachidonoyl glycine level vs vehicle (PND 35 CTX): ↓ (1-1.49 times lower than vehicle)
N-arachidonoyl methionine level vs vehicle (PND 35 CTX): ↓↓ (1.50-1.99 times lower than vehicle)
N-arachidonoyl phenylalanine level vs vehicle (PND 35 CTX): ↓ (1-1.49 times lower than vehicle)
N-arachidonoyl serine level vs vehicle (PND 35 CTX): ↓ (1-1.49 times lower than vehicle)
N-arachidonoyl taurine level vs vehicle (PND 35 CTX): ↓ (1-1.49 times lower than vehicle)
N-arachidonoyl tyrosine level vs vehicle (PND 35 CTX): ↓ (1-1.49 times lower than vehicle)
N-docosahexaenoyl GABA level vs vehicle (PND 35 CTX): ↓ (1-1.49 times lower than vehicle)
N-docosahexaenoyl glycine level vs vehicle (PND 35 CTX): ↓ (1-1.49 times lower than vehicle)
N-docosahexaenoyl leucine level vs vehicle (PND 35 CTX): ↑↑ (1.50-1.99 times higher than vehicle)
N-docosahexaenoyl serine level vs vehicle (PND 35 CTX): ↓↓ (1.50-1.99 times lower than vehicle)
N-docosahexaenoyl valine level vs vehicle (PND 35 CTX): ↑ (1-1.49 times higher than vehicle)
N-linoleoyl GABA level vs vehicle (PND 35 CTX): ↓ (1-1.49 times lower than vehicle)
N-linoleoyl glycine level vs vehicle (PND 35 CTX): ↓ (1-1.49 times lower than vehicle)
N-oleoyl GABA level vs vehicle (PND 35 CTX): ↓ (1-1.49 times lower than vehicle)
N-oleoyl alanine level vs vehicle (PND 35 CTX): ↓ (1-1.49 times lower than vehicle)
N-oleoyl glycine level vs vehicle (PND 35 CTX): ↓ (1-1.49 times lower than vehicle)
N-oleoyl leucine level vs vehicle (PND 35 CTX): ↑ (1-1.49 times higher than vehicle)
N-oleoyl methionine level vs vehicle (PND 35 CTX): ↓ (1-1.49 times lower than vehicle)
N-oleoyl valine level vs vehicle (PND 35 CTX): ↑ (1-1.49 times higher than vehicle)
N-palmitoyl leucine level vs vehicle (PND 35 CTX): ↑↑ (1.50-1.99 times higher than vehicle)
N-palmitoyl serine level vs vehicle (PND 35 CTX): ↓ (1-1.49 times lower than vehicle)
N-palmitoyl tyrosine level vs vehicle (PND 35 CTX): ↑ (1-1.49 times higher than vehicle)
N-palmitoyl valine level vs vehicle (PND 35 CTX): ↑↑ (1.50-1.99 times higher than vehicle)
N-stearoyl serine level vs vehicle (PND 35 CTX): ↓ (1-1.49 times lower than vehicle)
N-stearoyl tyrosine level vs vehicle (PND 35 CTX): ↑ (1-1.49 times higher than vehicle)
PGF2α level vs vehicle (PND 35 CTX): ↑ (1-1.49 times higher than vehicle)
phosphoLEA level vs vehicle (PND 35 CTX): ↑↑ (1.50-1.99 times higher than vehicle)
2-arachidonoyl glycerol level vs vehicle (PND 35 HIPP): ↓ (1-1.49 times lower than vehicle)
2-linoleoyl glycerol level vs vehicle (PND 35 HIPP): ↓↓ (1.50-1.99 times lower than vehicle)
2-oleoyl glycerol level vs vehicle (PND 35 HIPP): ↓ (1-1.49 times lower than vehicle)
6-ketoPGF1α level vs vehicle (PND 35 HIPP): ↑ (1-1.49 times higher than vehicle)
Arachidonic acid level vs vehicle (PND 35 HIPP): ↓ (1-1.49 times lower than vehicle)
Linoleic acid level vs vehicle (PND 35 HIPP): ↓ (1-1.49 times lower than vehicle)
N- stearoyl valine level vs vehicle (PND 35 HIPP): ↑ (1-1.49 times higher than vehicle)
N-arachidonoyl GABA level vs vehicle (PND 35 HIPP): ↓↓ (1.50-1.99 times lower than vehicle)
N-arachidonoyl alanine level vs vehicle (PND 35 HIPP): ↓ (1-1.49 times lower than vehicle)
N-arachidonoyl ethanolamine level vs vehicle (PND 35 HIPP): ↓ (1-1.49 times lower than vehicle)
N-arachidonoyl glycine level vs vehicle (PND 35 HIPP): ↓ (1-1.49 times lower than vehicle)
N-arachidonoyl phenylalanine level vs vehicle (PND 35 HIPP): ↓ (1-1.49 times lower than vehicle)
N-arachidonoyl serine level vs vehicle (PND 35 HIPP): ↓↓↓ (2-2.99 times lower than vehicle)
N-arachidonoyl taurine level vs vehicle (PND 35 HIPP): ↓ (1-1.49 times lower than vehicle)
N-docosahexaenoyl GABA level vs vehicle (PND 35 HIPP): ↓↓ (1.50-1.99 times lower than vehicle)
N-docosahexaenoyl alanine level vs vehicle (PND 35 HIPP): ↓ (1-1.49 times lower than vehicle)
N-docosahexaenoyl ethanolamine level vs vehicle (PND 35 HIPP): ↓ (1-1.49 times lower than vehicle)
N-docosahexaenoyl glycine level vs vehicle (PND 35 HIPP): ↓ (1-1.49 times lower than vehicle)
N-docosahexaenoyl leucine level vs vehicle (PND 35 HIPP): ↑ (1-1.49 times higher than vehicle)
N-docosahexaenoyl serine level vs vehicle (PND 35 HIPP): ↓ (1-1.49 times lower than vehicle)
N-linoleoyl GABA level vs vehicle (PND 35 HIPP): ↓↓ (1.50-1.99 times lower than vehicle)
N-linoleoyl alanine level vs vehicle (PND 35 HIPP): ↓ (1-1.49 times lower than vehicle)
N-oleoyl GABA level vs vehicle (PND 35 HIPP): ↓↓ (1.50-1.99 times lower than vehicle)
N-oleoyl alanine level vs vehicle (PND 35 HIPP): ↓ (1-1.49 times lower than vehicle)
N-oleoyl ethanolamine level vs vehicle (PND 35 HIPP): ↓ (1-1.49 times lower than vehicle)
N-oleoyl glycine level vs vehicle (PND 35 HIPP): ↓ (1-1.49 times lower than vehicle)
N-oleoyl methionine level vs vehicle (PND 35 HIPP): ↓ (1-1.49 times lower than vehicle)
N-oleoyl valine level vs vehicle (PND 35 HIPP): ↑ (1-1.49 times higher than vehicle)
N-palmitoyl alanine level vs vehicle (PND 35 HIPP): ↓ (1-1.49 times lower than vehicle)
N-palmitoyl ethanolamine level vs vehicle (PND 35 HIPP): ↓ (1-1.49 times lower than vehicle)
N-palmitoyl leucine level vs vehicle (PND 35 HIPP): ↑ (1-1.49 times higher than vehicle)
N-palmitoyl phenylalanine level vs vehicle (PND 35 HIPP): ↑ (1-1.49 times higher than vehicle)
N-palmitoyl tyrosine level vs vehicle (PND 35 HIPP): ↑ (1-1.49 times higher than vehicle)
N-palmitoyl valine level vs vehicle (PND 35 HIPP): ↑ (1-1.49 times higher than vehicle)
N-stearoyl GABA level vs vehicle (PND 35 HIPP): ↓ (1-1.49 times lower than vehicle)
N-stearoyl alanine level vs vehicle (PND 35 HIPP): ↓ (1-1.49 times lower than vehicle)
N-stearoyl glycine level vs vehicle (PND 35 HIPP): ↓ (1-1.49 times lower than vehicle)
Oleic Acid level vs vehicle (PND 35 HIPP): ↓ (1-1.49 times lower than vehicle)
